Key:
[1] = target: T1, Dictyostelium myosin II ADCT (Dictyostelium discoideum, UniProt P08799); assay: In vitro myosin assembly assay, with or without 14-3-3; assay type: biochemical; settings: with or without purified 14-3-3
T1 construct: fused to the assembly domains of Dictyostelium myosin II (residues 1533-1823); 6xHis (N); mCherry (N); made in house; host or cells: E. coli BL-21 Star (DE3)
Text: (§1) The sedimentation assays were used to assess myosin II assembly in cells. The assembly assay used purified proteins (N-terminal 6×His tag (SEQ ID NO: 1), fused to the mCherry fluorophore, fused to the assembly domains of Dictyostelium myosin II (residues 1533-1823), human myosin IIA (residues 1722-1960), and human myosin IIB (residues 1729-1976), and 6×His-tagged (SEQ ID NO: 1) fused Dictyostelium 14-3-3). Purified chicken nonmuscle IIB heavy meromyosin (HMM) was used for in vitro motility.
(§2) Bacterial expression plasmids coding for an N-terminal 6×His tag (SEQ ID NO: 1), fused to the mCherry fluorophore, fused to the assembly domains of Dictyostelium myosin II (residues 1533-1823), human myosin IIA (residues 1722-1960), or human myosin IIB (residues 1729-1976) were generated using standard cloning techniques.
Dictyostelium 14-3-3 was also expressed in bacteria as a 6×His-tagged (SEQ ID NO: 1) fusion protein (Zhou Q et al., 2010). Proteins were expressed in BL-21 Star™ (DE3) (Invitrogen) E. coli in LB shaking culture overnight at room temperature. […] Protein purity was verified by SDS-PAGE followed by Coomassie Blue staining, and concentration was quantified by UV absorbance using the calculated extinction coefficient for each protein's amino acid sequence. […]

[2] = tested on: Dictyostelium cells; assay: Micropipette aspiration cortical tension, Dictyostelium; assay type: cell-based, Dictyostelium discoideum
Experimental: (§3) Micropipette aspiration was used for cortical tension and creep response measurements. Confocal imaging was performed on a Zeiss 510 Meta with a 63× (numerical aperture [NA] 1.4) objective (Carl Zeiss, Jena, Germany). Epifluorescence and TIRF imaging was performed in a 22° C. temperature controlled room with an Olympus IX81 microscope using a 40× (NA 1.3) or 60× (NA 1.49) objective and a 1.4× optovar (Olympus, Center Valley, Pa.), as previously described. Image analysis was performed with ImageJ (rsb.info.nih.gov/ij).
The instrumental and experimental setups have been previously described (Effler J C, et al., 2006; Kee Y-S, et al., 2013). Micropipette aspiration assays were all carried out in growth media with 0.1% DMSO. For cortical tension measurements of Dictyostelium cells, pressure was applied to the cell cortex with a micropipette (2-3 m radius, Rp) to the equilibrium pressure (ΔP) where the length of the cell inside the pipette (Lp) was equal to Rp. The effective cortical tension (Teff) was calculated by applying the Young-Laplace equation: ΔP=2Teff(1/Rp-1/Rc), where Rc is the radius of the cell and ΔP is the equilibrium pressure when Lp=Rp (Derganc J, et al., 2000; Octtaviani E, et al., 2006). For creep tests on mammalian strains, a constant aspiration stress was applied over 60 s. The micropipette radius was 3.5-4.5 m. For quantification, the Lp/Rp ratio values was measured every two seconds and plotted as a function of time. A10.7 and HEK293 cells could only be aspirated at a low pressure range (0.15 nN/μm^2), while HPDE, ASPC-1, and HL-60 cells could be aspirated at higher pressure ranges (0.25 nN/μm^2) because they were stiffer.

[3] = target: T2, human myosin IIB (Homo sapiens, UniProt P35580); assay: In vitro myosin assembly assay; assay type: biochemical; settings: n=3
T2 construct: human myosin IIB (residues 1729-1976); 6xHis (N); mCherry (N); made in house; host or cells: E. coli BL-21 Star (DE3)
T2 sequence (P35580 1729-1976): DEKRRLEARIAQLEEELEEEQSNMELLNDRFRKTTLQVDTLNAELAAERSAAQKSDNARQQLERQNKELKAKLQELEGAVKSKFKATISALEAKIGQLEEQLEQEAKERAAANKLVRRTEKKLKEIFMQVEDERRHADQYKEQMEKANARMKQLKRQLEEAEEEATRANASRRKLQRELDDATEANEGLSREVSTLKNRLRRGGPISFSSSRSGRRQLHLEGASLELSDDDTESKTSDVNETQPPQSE
Text: as §1, §2
(§4) In vitro assembly of myosin was conducted according to the method of Zhou et al, 2010 (Zhou Q et al., 2010), with a number of modifications. The protein concentration for each species in the tube was increased to […] to ensure that the smaller protein was adequately visible by Coomassie Blue staining, and the incubation time and temperature was adjusted to 30 min at the physiological temperature for each myosin species (22° C. for Dictyostelium myosin, 37° C. for human myosins). These temperatures were also used during the centrifugation step.

[4] = target: T3, human myosin IIA (Homo sapiens, UniProt P35579); assay: In vitro myosin assembly assay; assay type: biochemical; settings: n=3
T3 construct: human myosin IIA (residues 1722-1960); 6xHis (N); mCherry (N); made in house; host or cells: E. coli BL-21 Star (DE3)
T3 sequence (P35579 1722-1960): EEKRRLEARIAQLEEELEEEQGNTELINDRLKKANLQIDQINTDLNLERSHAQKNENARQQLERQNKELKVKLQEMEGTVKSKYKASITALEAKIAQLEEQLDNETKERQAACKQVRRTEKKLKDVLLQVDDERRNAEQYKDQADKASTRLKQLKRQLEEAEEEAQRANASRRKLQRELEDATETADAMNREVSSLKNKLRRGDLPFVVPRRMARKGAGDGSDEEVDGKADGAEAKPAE
Text: as §1, §2, §4

[5] = target: T4, myosin II (Dictyostelium discoideum, UniProt P08799); assay: Myosin II cortical localization by SIM, TIRF and confocal imaging; assay type: cell-based
T4 construct: expressed in transfected cells; host or cells: Dictyostelium discoideum myoII null cells rescued with GFP-myosin II
T4 sequence (P08799 whole entry): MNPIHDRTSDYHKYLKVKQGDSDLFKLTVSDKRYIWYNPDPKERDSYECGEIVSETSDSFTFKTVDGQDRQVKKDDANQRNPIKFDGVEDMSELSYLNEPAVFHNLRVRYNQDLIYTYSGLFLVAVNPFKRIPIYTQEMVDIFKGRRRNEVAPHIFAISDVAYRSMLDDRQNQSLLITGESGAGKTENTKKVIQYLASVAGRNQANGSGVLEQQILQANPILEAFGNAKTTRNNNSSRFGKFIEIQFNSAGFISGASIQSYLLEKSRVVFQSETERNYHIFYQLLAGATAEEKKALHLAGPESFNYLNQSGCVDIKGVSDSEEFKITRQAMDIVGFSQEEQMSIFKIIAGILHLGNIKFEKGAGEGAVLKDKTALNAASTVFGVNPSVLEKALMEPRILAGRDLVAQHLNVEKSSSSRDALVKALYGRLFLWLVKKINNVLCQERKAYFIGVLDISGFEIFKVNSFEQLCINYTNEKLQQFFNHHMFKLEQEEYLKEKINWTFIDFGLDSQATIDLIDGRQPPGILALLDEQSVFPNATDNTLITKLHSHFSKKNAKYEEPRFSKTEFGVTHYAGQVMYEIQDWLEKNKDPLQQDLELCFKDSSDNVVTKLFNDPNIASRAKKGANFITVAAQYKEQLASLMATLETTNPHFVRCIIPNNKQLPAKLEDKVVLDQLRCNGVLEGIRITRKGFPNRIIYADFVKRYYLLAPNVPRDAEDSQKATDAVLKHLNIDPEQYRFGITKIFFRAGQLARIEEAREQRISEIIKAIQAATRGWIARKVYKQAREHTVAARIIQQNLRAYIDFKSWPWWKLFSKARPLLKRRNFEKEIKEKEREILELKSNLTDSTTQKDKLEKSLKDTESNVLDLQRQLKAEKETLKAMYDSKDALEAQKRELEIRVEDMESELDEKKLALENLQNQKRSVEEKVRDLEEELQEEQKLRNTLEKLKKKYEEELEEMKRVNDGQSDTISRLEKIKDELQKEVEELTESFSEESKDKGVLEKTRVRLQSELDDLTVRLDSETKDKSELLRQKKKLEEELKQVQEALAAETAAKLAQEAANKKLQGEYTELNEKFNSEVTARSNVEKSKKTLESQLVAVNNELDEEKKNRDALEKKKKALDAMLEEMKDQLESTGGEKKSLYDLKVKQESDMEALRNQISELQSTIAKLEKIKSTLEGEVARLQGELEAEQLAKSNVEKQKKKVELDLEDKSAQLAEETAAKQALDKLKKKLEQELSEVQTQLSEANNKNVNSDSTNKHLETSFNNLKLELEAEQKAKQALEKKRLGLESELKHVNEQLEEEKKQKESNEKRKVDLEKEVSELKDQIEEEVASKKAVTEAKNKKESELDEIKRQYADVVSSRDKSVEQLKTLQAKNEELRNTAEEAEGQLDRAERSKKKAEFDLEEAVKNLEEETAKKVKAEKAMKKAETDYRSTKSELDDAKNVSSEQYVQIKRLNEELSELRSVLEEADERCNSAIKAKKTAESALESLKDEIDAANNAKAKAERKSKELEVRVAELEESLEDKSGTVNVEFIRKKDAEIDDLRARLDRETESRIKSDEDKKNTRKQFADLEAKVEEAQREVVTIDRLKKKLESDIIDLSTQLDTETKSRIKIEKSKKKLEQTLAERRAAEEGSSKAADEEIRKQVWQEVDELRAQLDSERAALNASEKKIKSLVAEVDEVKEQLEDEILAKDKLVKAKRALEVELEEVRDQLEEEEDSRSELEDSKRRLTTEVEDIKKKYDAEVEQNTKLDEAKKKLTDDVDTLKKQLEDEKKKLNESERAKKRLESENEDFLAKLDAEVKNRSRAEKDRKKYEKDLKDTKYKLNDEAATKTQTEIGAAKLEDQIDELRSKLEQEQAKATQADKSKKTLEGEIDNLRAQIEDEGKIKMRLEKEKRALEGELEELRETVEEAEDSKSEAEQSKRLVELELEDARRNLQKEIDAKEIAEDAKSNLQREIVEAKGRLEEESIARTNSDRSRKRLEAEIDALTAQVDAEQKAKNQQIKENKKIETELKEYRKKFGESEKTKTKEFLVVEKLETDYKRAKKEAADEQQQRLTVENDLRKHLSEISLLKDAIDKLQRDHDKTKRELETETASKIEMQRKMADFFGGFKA
Experimental: as §3
Imaging conditions during primary screen are described above. All other image analysis was performed as previously described (Kee Y S, et al., 2012). Cells were transferred from Petri dishes (with 0.1% DMSO incubation in growth media of 4 hrs) to imaging chambers and allowed to adhere for 20 min in growth media with 0.1% DMSO. After the cells adhered, the growth media was replaced with 2-(N-morpholino)ethanesulfonic acid (MES) starvation buffer (50 mM MES, pH 6.8, 2 mM MgCl2, 0.2 mM CaCl2) with 0.1% DMS. Confocal imaging was performed on aZeiss 510 Meta with a 63× (numerical aperture [NA] 1.4) objective (Carl Zeiss, Jena, Germany). Epifluorescence and TIR imaging was performed in a 22° C. temperature controlled room with an Olympus IX81 microscope using a 40× (NA 1.3) or 60× (NA […]) objective and a 1.4× optovar (Olympus, Center Valley, Pa.), as previously described. Image analysis was performed with ImageJ (rsb.info.nih.gov/ij). Many data sets were independently analyzed by multiple investigators.

T1 sequence (P08799 1533-1823): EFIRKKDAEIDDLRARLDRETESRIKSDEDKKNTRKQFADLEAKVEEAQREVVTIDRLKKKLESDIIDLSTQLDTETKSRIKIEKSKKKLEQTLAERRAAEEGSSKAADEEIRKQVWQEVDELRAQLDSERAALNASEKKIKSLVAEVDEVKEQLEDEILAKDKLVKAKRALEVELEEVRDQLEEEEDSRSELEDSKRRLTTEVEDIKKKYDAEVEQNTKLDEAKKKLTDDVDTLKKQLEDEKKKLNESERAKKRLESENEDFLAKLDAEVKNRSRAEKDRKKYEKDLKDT

| SMILES | in vitro assembly vs DMSO control [1] | change in cortical tension, myosin II null cells ([2]; myoI null cells as printed) | change in cortical tension, S456L myosin cells ([2]; myoII::GFP-S456L cells) | in vitro assembly vs DMSO control [3] | in vitro assembly vs DMSO control [4] | time to significant localization of GFP-myosin II ([5]; 500 nM) [min] | time for myosin II localization to revert to pre-treatment levels after removal ([5]; 500 nM, washout) [min] | increase in myosin II localization at the cortex by TIRF ([5]; 500 nM, within 10 min) [fold] | subset of cells with BTFs accumulated into ribbon-like rings ([5]; TIRF) [%] | increase in myosin II at the cortex ([5]; TIRF time course) [fold] | time for myosin II bipolar thick filaments to accumulate at the cortex ([5]; TIRF time course) [min] | time to steady state of myosin II cortical accumulation ([5]; TIRF time course) [min] | myosin II accumulation in cortexillin I deleted cells ([5]; cortI::GFPmyo cells) | cortical enrichment of myosin II (cortex to cytoplasm) ([5]; each degradation product tested) | effect on cortical tension ([2]; WT cells) | changes in myosin II cortical distribution (TIRF) ([5]; 500 nM time course) |
| --- | --- | --- | --- | --- | --- | --- | --- | --- | --- | --- | --- | --- | --- | --- | --- | --- |
| CC(=O)c1ccc(O)cc1 [4-HAP, 4-hydroxyacetophenone] | no significant change in in vitro assembly | did not experience a similar shift in mechanics | did not have a change in cortical tension | unaffected | unaffected | ≤ 10 | ≤ 15 | 2 | 15 | 2.5 | ≤ 5 | 15 | abolished | 4-HAP alone drives myosin II relocalization | – | – |
| Nc1ccc(Cl)c(Cl)c1 [3,4-DCA, 3,4-dichloroaniline] | no significant change in in vitro assembly | – | – | unaffected | unaffected | – | – | – | – | – | – | – | – | – | had no effect | Neither 3,4-DCA nor the urea result in changes in myosin II cortical distribution |

From US11834401B2, “Treating and preventing diseases by modulating cell mechanics” (THE JOHNS HOPKINS UNIVERSITY, priority 2013, dated 2023)
